Measured values from patent US10870875B2, “Metalloprotein compositions” (Commonwealth Scientific and Industrial Research Organisation, priority 2014, dated 2020).
Numbering of substitutions follows the chain as printed.

Columns and labels:
[1] = biological target: T1, Apis mellifera AmelF3 (SEQ ID NO: 39) variant Y76H A97H (Apis mellifera, UniProt A0ACM8QI31, A116H/Y95H); assay: Binding of heme to AmelF3 Y76H A97H; settings: Soret peak vs heme ratio
T1 sequence (A0ACM8QI31 20-335 Y95H/A116H): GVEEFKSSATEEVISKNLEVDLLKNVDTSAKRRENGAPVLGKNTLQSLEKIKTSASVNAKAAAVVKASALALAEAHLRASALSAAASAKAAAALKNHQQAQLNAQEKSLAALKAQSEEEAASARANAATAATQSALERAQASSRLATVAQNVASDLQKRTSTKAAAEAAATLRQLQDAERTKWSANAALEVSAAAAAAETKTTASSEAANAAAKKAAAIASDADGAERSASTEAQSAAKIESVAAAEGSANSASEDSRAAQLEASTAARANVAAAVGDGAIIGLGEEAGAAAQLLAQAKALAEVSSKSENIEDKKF
Procedure: (§1) Site directed mutagenesis of honeybee silk proteins was carried using methods known to the person skilled in the art. For example, to generate AmelF3 Tyr76Ala, the forward primer 5′-[…]-3′ (SEQ ID NO: 80) with the corresponding reverse primer was employed and site directed mutagenesis was carried out using Pfx 50 DNA polymerase from Invitrogen following the Pfx50 manufactures instructions. All AmelF3 mutants were expressed and purified using a similar procedure as the unmodified AmelF3 silk protein. To generate AmelF3 Tyr76His, the forward primer 5′-[…]-3′ (SEQ ID NO: 81) with the corresponding reverse primer was employed. To generate AmelF3 Ala97His, the forward primer 5′-[…]-3′ (SEQ ID NO: 82) was used.
(§2) A coordinating His residue (His97) was introduced into AmelF3 with Y76H substitution in the a-position of the coiled-coil.

[2] = biological target: T2, Oecophylla smaragdina silk fibroin 1 (GA1), SEQ ID NO: 9 (Oecophylla smaragdina, UniProt A8IM81); assay: Haem b leached into green ant silk GA1 film; assay type: binding; settings: signal at around 400 nm
T2 construct: film
T2 sequence (A8IM81 20-391): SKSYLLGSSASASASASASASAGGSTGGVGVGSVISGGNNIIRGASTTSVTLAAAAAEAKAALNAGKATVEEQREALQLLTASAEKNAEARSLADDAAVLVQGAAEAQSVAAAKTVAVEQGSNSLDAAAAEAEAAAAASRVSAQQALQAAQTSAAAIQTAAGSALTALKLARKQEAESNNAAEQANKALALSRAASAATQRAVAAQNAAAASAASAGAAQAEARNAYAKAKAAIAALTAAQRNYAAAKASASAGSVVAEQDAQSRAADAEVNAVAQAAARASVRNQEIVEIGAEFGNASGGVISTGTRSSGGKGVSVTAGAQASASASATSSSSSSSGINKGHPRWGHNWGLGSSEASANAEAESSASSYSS
Excerpt: (§3) Full length, recombinant honeybee silk proteins (AmelF3) without affinity purification tags, were produced by fermentation in Escherichia coli as described in Weisman et al. (2010). Full length, recombinant Weaver Ant/Green Ant (Oecophylla smaragdina) silk proteins (GA1, GA2, GA3, GA4) without affinity purification tags, were produced by fermentation in Escherichia coli following the same procedures as outlined in Weisman et al. (2010).
(§4) Alternatively, haem b was ‘leached’ into a pre-formed film. The AmelF3 material was formed as described in example 1. The silk material was soaked in a solution of haem b (0.5 mg/mL; haem b in excess) in 70% methanol solution for between 1 and 48 hours followed by washing with 70% methanol to remove any unbound haem b and dried at room temperature.
(§5) Transparent films from the Green Ant (Oecophylla smaragdina) (GA1-4) silk proteins were prepared as described above. Haem b in 70% methanol was leached into the preformed Green Ant silk film as described at Example 3. UV/Vis spectra were collected for Green Ant silk film after haem b had been leached.

[3] = biological target: T3, Apis mellifera AmelF3 (SEQ ID NO: 39) variant Tyr76His (Y76H) (Apis mellifera, UniProt A0ACM8QI31, Y95H); assay: Binding of haem b to AmelF3 Tyr76His; settings: UV/Vis, in solution and film
T3 construct: solution and film
T3 sequence (A0ACM8QI31 20-335 Y95H): T1 sequence (A0ACM8QI31 20-335 Y95H/A116H) with H97A
Procedure: as §1
The present inventors also mutated Tyr76 to a histidine and investigated the effect the single amino acid substitution had on binding to haem b. […] The sharp peak observed at around 400 nm is indicative of the coordination of an amino acid residue to the iron haem centre.
as §2

[4] = biological target: T4, Apis mellifera AmelF3 (SEQ ID NO: 39) variant Y76A A97H (Apis mellifera, UniProt A0ACM8QI31, A116H/Y95A); assay: Binding of haem to AmelF3 Y76A A97H; settings: sharp Soret peak at 413 nm
T4 sequence (A0ACM8QI31 20-335 Y95A/A116H): T1 sequence (A0ACM8QI31 20-335 Y95H/A116H) with H76A
Procedure: as §1
A coordinating His residue was introduced into AmelF3 with Y76A in the a-position of the coiled-coil.

[5] = biological target: T5, Oecophylla smaragdina silk fibroin 3 (GA3), SEQ ID NO: 11 (Oecophylla smaragdina, UniProt A8IM91); assay: Haem b leached into green ant silk GA3 film; assay type: binding; settings: signal at around 400 nm
T5 construct: film
T5 sequence (A8IM91 20-395): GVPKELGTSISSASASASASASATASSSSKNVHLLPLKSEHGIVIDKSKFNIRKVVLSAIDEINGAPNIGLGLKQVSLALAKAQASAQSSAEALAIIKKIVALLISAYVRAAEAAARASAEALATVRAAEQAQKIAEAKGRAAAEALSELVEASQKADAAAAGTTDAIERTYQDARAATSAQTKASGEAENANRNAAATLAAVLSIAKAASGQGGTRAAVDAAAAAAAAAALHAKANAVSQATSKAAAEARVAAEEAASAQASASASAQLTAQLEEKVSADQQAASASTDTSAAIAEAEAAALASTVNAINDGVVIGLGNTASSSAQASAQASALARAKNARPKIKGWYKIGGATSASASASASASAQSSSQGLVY
Excerpt: as §3, §4, §5

Structure (SMILES): C=CC1=C(C)c2cc3[nH]c(cc4nc(cc5[nH]c(cc1n2)c(C)c5CCC(=O)O)C(CCC(=O)O)=C4C)c(C)c3C=C.[Fe] [haem b]
- number of heme cofactors bound [1]: two
- haem binding (in words) [2]: strongly bound haem
- binding to silk protein (in words) [3]: bound haem b via a co-ordinate bond
- haem coordination (in words) [4]: indicative of histidine coordination
- haem binding (in words) [5]: strongly bound haem
